Values quoted from earlier work in patent US7655259B2, “Delayed release carnitine” (SIGMA-TAU Industrie Farmaceutiche Riunite S.p.A, priority 1993, dated 2010).

Columns and labels:
[1] = given orally, carnitine deficient patients
[2] = in the human

Compound	conversion to L-carnitine [1]	half-life [2]
C[N+](C)(C)CCCC(=O)[O-] [GBB, Gamma-butyrobetaine]	readily converted to L-carnitine	
C[N+](C)(C)CC(O)CC(=O)[O-] [L-carnitine, 3-hydroxy-4-(trimethylamino-)butyrate]		approximately 30 minutes
